Source: EP2792359A1, “Treatment of L-DOPA-induced dyskinesia with OPC-14523 or OPC-34712” (Merz Pharma GmbH & Co. KGaA, priority 2013, dated 2014)

What was measured:
6-OHDA-lesioned rats = assay: L-DOPA induced dyskinesia (AIM scores) in the 6-OHDA-lesioned rat model of Parkinson's disease; assay type: in vivo, Sprague Dawley rats; details: for reduction of LID: comparators, data not shown, dose not given
MAO-A = target: T1, MAO-A (Homo sapiens, UniProt P21397); details: cited from earlier work
T1 sequence (P21397 1-527): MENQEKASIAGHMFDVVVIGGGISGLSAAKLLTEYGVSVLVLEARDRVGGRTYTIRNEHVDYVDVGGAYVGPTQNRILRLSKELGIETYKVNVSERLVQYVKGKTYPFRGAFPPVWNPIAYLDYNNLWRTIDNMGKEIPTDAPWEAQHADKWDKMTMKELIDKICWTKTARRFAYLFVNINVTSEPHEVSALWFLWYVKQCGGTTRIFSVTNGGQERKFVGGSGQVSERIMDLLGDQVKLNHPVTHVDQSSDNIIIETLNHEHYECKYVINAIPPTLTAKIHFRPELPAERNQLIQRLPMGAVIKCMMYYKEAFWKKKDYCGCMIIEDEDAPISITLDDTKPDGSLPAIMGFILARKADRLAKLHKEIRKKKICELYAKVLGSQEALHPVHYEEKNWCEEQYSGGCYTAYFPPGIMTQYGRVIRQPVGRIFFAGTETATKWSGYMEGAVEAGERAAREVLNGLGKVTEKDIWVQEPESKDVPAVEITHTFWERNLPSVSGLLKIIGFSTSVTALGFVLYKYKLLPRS

5-HT1A = target: T2, 5-HT1A (Homo sapiens, UniProt P08908); assay: 5-HT1A cAMP HTRF assay (agonist test, Euroscreen FAST-0500C); assay type: cell-based
T2 construct: host or cells: CHO-K1
T2 sequence (P08908 1-422): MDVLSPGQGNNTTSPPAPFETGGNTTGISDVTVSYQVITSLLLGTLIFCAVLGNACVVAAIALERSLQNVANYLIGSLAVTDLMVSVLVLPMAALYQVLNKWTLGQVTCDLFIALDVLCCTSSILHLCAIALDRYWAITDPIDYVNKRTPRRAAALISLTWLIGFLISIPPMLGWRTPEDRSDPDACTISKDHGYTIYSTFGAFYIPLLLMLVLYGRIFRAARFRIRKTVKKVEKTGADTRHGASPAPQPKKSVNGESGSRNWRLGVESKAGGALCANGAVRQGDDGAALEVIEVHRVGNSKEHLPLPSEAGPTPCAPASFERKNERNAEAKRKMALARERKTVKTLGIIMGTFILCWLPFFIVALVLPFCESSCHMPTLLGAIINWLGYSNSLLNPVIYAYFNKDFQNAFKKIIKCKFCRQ
Procedure: (§1) A. In vitro 5-HT1A/B Activity Measurements: 5-HT1A/B cAMP HTRF assay (performed at Euroscreen, order no.: 5-HT1A:FAST-0500C, 5-HT1B: FAST-0501 C)
(§2) CHO-K1 cells expressing each human recombinant receptor (see Table 1) grown prior to the test in media without antibiotic were detached by gentle flushing with PBS-EDTA, recovered by centrifugation and resuspended in assay buffer. Dose response curves are performed in parallel with the reference compounds.
(§3) For agonist tests (96well): 12 µl of cells were mixed with 6 µl of the test compound at increasing concentrations and 6 µl of forskolin then incubated 30 min at room temperature. After addition of the lysis buffer and 1 hour incubation, cAMP concentrations were estimated, according to the manufacturer specification, with the HTRF kit (Cisbio).
Assay buffer consisted of: 5 mM KCI, 1.25 mM MgSO4, 124 mM NaCl, 25 mM HEPES, 13.3 mM Glucose, 1.25 mM KH2PO4, 1.45 mM CaCl2, and 0.5 g/I BSA. PBS-EDTA contained 137 mM NaCl, 2.7 mM KCI, 10 mM Na2HPO4, 2 mM KH2PO4 and 5 mM EDTA. […]
(§4) Dose-response data from test compounds were analyzed with XLfit (IDBS) software using nonlinear regression applied to a sigmoidal dose-response model (4 Parameter Fit).
(§5) Agonist activity of test compounds is expressed as a percentage of the activity of the reference agonist at a saturating concentration.

[1] = cited from earlier work
NMDA receptor = details: cited from earlier work
[2] = target: T3, Muscarinic acetylcholine receptors M2 (Homo sapiens, UniProt P08172); details: cited from earlier work
T3 sequence (P08172 1-466): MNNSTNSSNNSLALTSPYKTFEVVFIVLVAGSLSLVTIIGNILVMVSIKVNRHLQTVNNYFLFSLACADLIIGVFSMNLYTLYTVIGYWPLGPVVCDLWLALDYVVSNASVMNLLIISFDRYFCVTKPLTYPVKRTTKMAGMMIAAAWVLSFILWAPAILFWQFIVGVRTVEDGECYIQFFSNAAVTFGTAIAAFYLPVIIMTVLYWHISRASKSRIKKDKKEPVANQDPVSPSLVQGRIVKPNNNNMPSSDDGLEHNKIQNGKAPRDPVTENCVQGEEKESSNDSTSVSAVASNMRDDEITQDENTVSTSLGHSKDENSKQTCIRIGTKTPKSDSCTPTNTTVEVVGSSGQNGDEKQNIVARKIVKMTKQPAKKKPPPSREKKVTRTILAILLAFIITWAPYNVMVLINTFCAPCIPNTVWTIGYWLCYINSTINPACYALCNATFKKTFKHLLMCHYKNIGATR

MAO-B = target: T4, MAO-B (Homo sapiens, UniProt P27338); details: cited from earlier work
T4 sequence (P27338 1-520): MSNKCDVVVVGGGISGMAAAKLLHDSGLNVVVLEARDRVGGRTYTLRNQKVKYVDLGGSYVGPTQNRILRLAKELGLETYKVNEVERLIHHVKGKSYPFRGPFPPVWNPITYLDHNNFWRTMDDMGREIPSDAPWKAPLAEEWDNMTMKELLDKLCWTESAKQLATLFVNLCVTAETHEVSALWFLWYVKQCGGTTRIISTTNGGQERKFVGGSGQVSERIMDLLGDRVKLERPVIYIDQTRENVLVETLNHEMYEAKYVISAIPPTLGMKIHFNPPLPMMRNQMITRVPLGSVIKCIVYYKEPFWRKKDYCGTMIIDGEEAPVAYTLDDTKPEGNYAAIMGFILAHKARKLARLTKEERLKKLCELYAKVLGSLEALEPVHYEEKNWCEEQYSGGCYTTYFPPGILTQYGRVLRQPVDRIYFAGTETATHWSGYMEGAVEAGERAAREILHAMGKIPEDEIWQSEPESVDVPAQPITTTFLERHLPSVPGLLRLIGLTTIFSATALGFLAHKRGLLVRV

[3] = target: T5, Muscarinic acetylcholine receptors M1 (Homo sapiens, UniProt P11229); details: cited from earlier work
T5 sequence (P11229 1-460): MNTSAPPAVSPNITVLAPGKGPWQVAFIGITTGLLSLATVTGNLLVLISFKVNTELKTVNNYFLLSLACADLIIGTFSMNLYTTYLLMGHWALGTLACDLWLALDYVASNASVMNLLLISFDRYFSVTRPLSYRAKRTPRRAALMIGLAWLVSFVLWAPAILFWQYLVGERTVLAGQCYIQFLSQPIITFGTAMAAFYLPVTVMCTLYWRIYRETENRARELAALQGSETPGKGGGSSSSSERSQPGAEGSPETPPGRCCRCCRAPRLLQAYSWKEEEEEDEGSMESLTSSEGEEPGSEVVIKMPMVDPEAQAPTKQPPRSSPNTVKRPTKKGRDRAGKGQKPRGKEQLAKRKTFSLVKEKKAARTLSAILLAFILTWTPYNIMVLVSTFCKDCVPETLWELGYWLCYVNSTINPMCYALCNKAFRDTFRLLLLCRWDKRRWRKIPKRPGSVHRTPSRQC

5-HT2B = target: T6, 5-HT2B (Homo sapiens, UniProt P41595); assay: 5-HT2B IP-One HTRF assay (Euroscreen FAST-0506I); assay type: cell-based
T6 construct: host or cells: CHO-K1
Procedure: B. 5-HT2B assay (performed at Euroscreen, order no.: FAST-0506I):
The 5-HT2B [00136] IP-One HTRF assay was conducted with recombinant cell lines, receptor accession numbers, cellular background and reference compounds are shown in Table 1.
Cells expressing human recombinant 5-HT2B (FAST-506I) grown to mid-log phase in culture media without antibiotics will be detached with PBS-EDTA, centrifuged and resuspended in medium without antibiotics buffer. 20,000 cells will be distributed in a 96 well plate and incubated overnight at 37°C with 5% CO2.
For agonist testing, the medium will be removed and 20 µl of assay buffer plus 20 µl of test compound or reference agonist will be added in each well. The plate will be incubated for 60 min at 37°C with 5% CO2.
For antagonist testing, 20 µl of test compound or reference antagonist is added and the plate is incubated for 15 min. at 37°C in a humidified atmosphere of 95% air with 5% CO2, then 20 µl of reference agonist at a final concentration corresponding to the historical EC80 is added. […]
IP1-D2 reagent and anti-IP1 cryptate reagents will be then dispensed in the wells and DeltaF percentage values will be then calculated following the manufacturer (CisBio) recommendations. […]
as §4

[4] = target: Muscarinic acetylcholine receptors M3 (Homo sapiens, UniProt P20309); details: cited from earlier work
5-HT1B = target: T7, 5-HT1B (Homo sapiens, UniProt P28222); assay: 5-HT1B cAMP HTRF assay (agonist test, Euroscreen FAST-0501C); assay type: cell-based
T7 construct: host or cells: CHO-K1
Procedure: as §1, §2, §3
Assay buffer consisted of: 5 mM KCI, 1.25 mM MgSO4, 124 mM NaCl, 25 mM HEPES, 13.3 mM Glucose, 1.25 mM KH2PO4, 1.45 mM CaCl2, and 0.5 g/I BSA. PBS-EDTA contained 137 mM NaCl, 2.7 mM KCI, 10 mM Na2HPO4, 2 mM KH2PO4 and 5 mM EDTA. Cell lines used were derived from CHO-K1 stably expressing the human receptors needed for the pharmacological testing (see Table 1). 5-Carboxamidotryptamine (5-CT) was used as reference agonist.
On each day of experimentation, reference compounds were tested at several concentrations in duplicate (n=2) to obtain a dose-response curve and an estimated EC50 value.
Reference values thus obtained for the test were compared to historical values obtained from the same receptor and used to validate the experimental session. […] For replicate determinations, the maximum variability tolerated in the test was of +/-20% around the average of the replicates.
as §4, §5

T7 sequence (P28222 whole entry): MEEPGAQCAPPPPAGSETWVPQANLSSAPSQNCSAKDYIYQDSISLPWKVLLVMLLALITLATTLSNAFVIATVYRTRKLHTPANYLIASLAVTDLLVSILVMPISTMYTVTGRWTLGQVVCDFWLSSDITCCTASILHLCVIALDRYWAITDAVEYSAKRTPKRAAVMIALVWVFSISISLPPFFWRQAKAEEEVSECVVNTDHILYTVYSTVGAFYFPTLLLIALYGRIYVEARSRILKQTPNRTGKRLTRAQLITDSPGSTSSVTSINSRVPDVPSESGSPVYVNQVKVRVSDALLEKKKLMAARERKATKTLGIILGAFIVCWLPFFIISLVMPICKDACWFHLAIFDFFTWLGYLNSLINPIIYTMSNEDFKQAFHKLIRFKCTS
T6 sequence (P41595 whole entry): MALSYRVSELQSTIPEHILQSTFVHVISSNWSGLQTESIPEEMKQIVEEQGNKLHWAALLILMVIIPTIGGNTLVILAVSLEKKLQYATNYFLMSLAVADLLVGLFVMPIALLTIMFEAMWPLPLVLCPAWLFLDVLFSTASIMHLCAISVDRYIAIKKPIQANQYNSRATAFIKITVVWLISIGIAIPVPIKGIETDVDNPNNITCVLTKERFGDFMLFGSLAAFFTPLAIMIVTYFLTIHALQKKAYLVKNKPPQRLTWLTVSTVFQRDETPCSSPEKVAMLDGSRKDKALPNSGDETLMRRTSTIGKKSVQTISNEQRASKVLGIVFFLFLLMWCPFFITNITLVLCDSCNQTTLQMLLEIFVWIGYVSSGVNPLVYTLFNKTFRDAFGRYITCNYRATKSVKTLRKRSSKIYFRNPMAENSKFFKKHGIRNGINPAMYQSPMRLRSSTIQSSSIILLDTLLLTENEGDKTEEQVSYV
Muscarinic acetylcholine receptors M3, sequence (P20309 whole entry): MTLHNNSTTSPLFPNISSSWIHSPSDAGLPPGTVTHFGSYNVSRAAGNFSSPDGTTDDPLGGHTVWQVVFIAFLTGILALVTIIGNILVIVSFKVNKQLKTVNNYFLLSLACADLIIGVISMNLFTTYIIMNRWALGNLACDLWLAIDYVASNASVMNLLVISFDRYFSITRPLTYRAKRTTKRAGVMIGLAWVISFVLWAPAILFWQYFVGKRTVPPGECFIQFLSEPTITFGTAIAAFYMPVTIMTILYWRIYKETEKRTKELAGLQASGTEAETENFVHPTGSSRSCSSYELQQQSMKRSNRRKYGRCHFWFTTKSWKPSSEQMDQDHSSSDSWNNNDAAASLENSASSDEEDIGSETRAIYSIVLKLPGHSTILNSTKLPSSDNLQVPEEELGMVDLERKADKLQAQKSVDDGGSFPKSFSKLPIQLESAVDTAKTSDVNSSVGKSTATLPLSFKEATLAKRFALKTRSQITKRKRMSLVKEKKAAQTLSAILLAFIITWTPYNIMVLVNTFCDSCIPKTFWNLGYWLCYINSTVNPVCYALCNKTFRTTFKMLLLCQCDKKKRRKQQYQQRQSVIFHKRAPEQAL

SMILES | reduction of LID (6-OHDA-lesioned rats) | activity at MAO-A (MAO-A) | effect on LID (AIM scores) (6-OHDA-lesioned rats; 10 mg/kg p.o., 10 min before L-DOPA/benserazide 6/15 mg/kg i.p.) | EC50 (5-HT1A) | Emax (5-HT1A; 0.5 h, CHO-K1 cells, human recombinant receptor, percentage of the activity of reference agonist 5-CT at saturating concentration, read-out: partial agonism, efficacy at 5-HT1A) | adverse events in Phase 1 studies [1] | activity at NMDA receptor (NMDA receptor) | activity at Muscarinic acetylcholine receptor M2 [2] | activity at MAO-B (MAO-B) | activity at Muscarinic acetylcholine receptor M1 [3] | IC50 (5-HT2B) | activity at Muscarinic acetylcholine receptor M3 [4] | Emax (5-HT1B; 0.5 h, CHO-K1 cells, human recombinant receptor, percentage of the activity of reference agonist 5-CT at saturating concentration, read-out: partial agonism, efficacy at 5-HT1B) | EC50 (5-HT1B; CHO-K1 cells, human recombinant receptor, cAMP with forskolin, read-out: partial agonism at 5-HT1B (potency)) | action at the 5-HT1B receptor (5-HT1B; human recombinant cell lines)
NC12CC3CC(CC(C3)C1)C2 [Amantadine] | -25% |  |  |  |  |  |  |  |  |  |  |  |  |  | 
c1cc2c(c(N3CCNCC3)c1)OCCO2 [Eltoprazine] | -60% |  |  |  |  |  |  |  |  |  |  |  |  |  | 
COc1cccc2c1CCC(=O)N2CCCN1CCN(c2cccc(Cl)c2)CC1 [OPC-14523, 1-[3-[4-(3-Chlorophenyl)piperazin-1-yl]propyl]-5-methoxy-1,2,3,4-tetrahydroquinolin-2-one] |  | inactive | strongly reduced LID | 26 nM | ~60% | no adverse events | inactive | inactive | inactive | inactive | 160 nM | inactive | ~60% | 7 nM | partial agonist
